Data from US20120128715A1, “METHOD FOR STIMULATING THE IMMUNE RESPONSE OF NEWBORNS” (3M INNOVATIVE PROPERTIES COMPANY, priority 2004, published 2012).
No end group written: not given here. 2,3‑bisacyloxypropyl = 2,3-bisacyloxypropyl group on the Cys sulfur

What was measured:
TLR8 and TLR7 [1] = assay: TLR agonism and TLR8 selectivity (TLR-mediated activity); assay type: cell-based; settings: for concentration inducing TLR8 activity as fraction of that necessary to induce TLR7-mediated activity: TLR8 vs TLR7 selectivity; for TLR8 selectivity: named as examples of TLR8-selective compounds
Description: The TLR agonism for a particular compound may be assessed in any suitable manner.
Conversely, a compound may be identified as not acting as an agonist of a specified TLR if, when used to perform an assay designed to detect biological activity mediated by the specified TLR, the compound fails to elicit a threshold increase in the biological activity. […] An assay may or may not be performed in conjunction with the appropriate control.
A significant degree may be, for example, inducing activity mediated by one TLR (e.g., TLR8) when administered at half the concentration necessary to induce activity through another TLR (e.g., TLR7).
Assays employing HEK293 cells transfected with an expressible TLR structural gene may use a threshold of, for example, at least a three-fold increase in a TLR-mediated biological activity (e.g., NFκB activation) when the compound is provided at a concentration of, for example, from about 1 μM to about 10 μM for identifying a compound as an agonist of the TLR transfected into the cell. However, different thresholds and/or different concentration ranges may be suitable in certain circumstances. Also, different thresholds may be appropriate for different assays.

TLR8 and TLR7 [2] = settings: cited from earlier work
[3] = test system: neonatal myeloid dendritic cells (mDCs); assay: CD40 expression on myeloid dendritic cells in whole blood (flow cytometry); assay type: cell-based, human; settings: imiquimod 250 μM, resiquimod 50 μM, 19 hours; FIGS. 15A-15D
Description: After lysis of red blood cells and fixation, mDCs were identified as lint-/HLA-DR+/CD11c+ cells using four color flow cytometry (BD BioSciences) and CD40 was measured using a PE-conjugated mAb.
Newborn cord or adult peripheral blood was incubated with TLR agonists at 37° C. for 19 hours. mDCs were identified by flow cytometry and the level of expression of CD40 was measured using a PE-conjugated mAb.
CD40 expression on mDCs was studied in whole newborn cord blood, in comparison to those of adult peripheral blood, using four-color flow cytometry (BD Biosciences). mDCs were identified as lineage 1-/HLA-DR+/CD11c+ cells. Upregulation of surface CD40 expression was measured using a phycoerythrin-conjugated anti-CD40 mAb.

[4] = test system: newborn cord blood and adult peripheral blood; assay: TLR ligand-induced TNF-α release in whole blood ex vivo (ELISA); assay type: cell-based, human; settings: for ligand-induced TNF-α release in newborn cord blood compared with adult peripheral blood: 5-hour incubation, FIGS. 1A-1E
Description: Peripheral blood was collected from healthy adult volunteers (N=26 individual volunteers; mean age 27 years; 45% male, 55% female) and newborn cord blood (N=63; mean gestational age 39 weeks; 43% male, 57% female) collected immediately after cesarean section delivery (epidural anesthesia) of the placenta or from the umbilical cord immediately after vaginal birth but prior to delivery of the placenta. Births at which antibiotics were administered during labor and/or delivery, and births to HIV-positive mothers were excluded. Human experimentation guidelines of the US Department of Health and Human Services and the Brigham & Women's Hospital were observed, following protocols approved by the local Institutional Review Board. Blood was anticoagulated with 129 mM sodium citrate (Becton Dickinson, Franklin Lakes, N.J.). Hemocytes were collected by centrifugation of blood, followed by washing three times with Hank's Balanced Salt Solution (HBSS) buffer without magnesium or calcium (Gibco BRL, Grand Island, N.Y.) and then resuspension in either autologous or heterologous 100% plasma.
TLR ligands included the synthetic triacylated BLP (tBLP) Pam3-CSSNA (Bachem Bioscience, King of Prussia, Pa.) corresponding to the N-terminus of a BLP from E. coli B/r (Biesert et al. 1987. Eur J Biochem 162:651), the synthetic diacylated BLP macrophage-activating lipopeptide-2 (MALP; S-(2,3-bisAcyloxypropyl)-cysteine-[…] (SEQ ID NO: 5); Alexis Biochemicals, Lausen, Switzerland) from Mycoplasma fermentans (Muhlradt et al. 1997. J Exp Med. 185:1951), ultrapure Re 595 LPS from Salmonella minnesota (List Biologicals, Campbell, Calif.), and the IRM compounds imiquimod (3M Pharmaceuticals, Northridge, Calif.), and resiquimod (InvivoGen, San Diego, Calif.). Specificity of individual TLR ligands for their cognate receptors was confirmed using either NF-kB luciferase reporter and TLR co-transfected Human Embryonic Kidney (HEK) 293 cells or a neutralizing mAb to TLR2 (Levy, O. et al. 2003. Infect Immun 71:6344), as previously described.
After incubation of TLR ligands in blood or monocyte suspensions for 5 hours at 37° C. with end-over-end rotation, samples were diluted with five volumes of ice-cold RPMI medium (Gibco BRL) and centrifuged at 1,000×g at 4° C. for 5 minutes. The supernatant was recovered and stored at −20° C. until assay of TNF-α by ELISA (R&D Systems, Minneapolis, Minn.).
TLR ligand-induced TNF-α release in whole human blood ex vivo as described above in Example 1. The single stranded ribonucleic acid (ssRNA) tested in this example was ssRNA40/LyoVec purchased from InvivoGen (San Diego, Calif.) comprised of single-stranded GU-rich oligonucleotide (5′-GsCsCsCsGsUsCsUsGsUsUsGsUsGsUsGsAsCsUsC-3′ (SEQ ID NO:1); where “s” depicts a phosphothioate linkage complexed with the cationic lipid LyoVec that protects the RNA from degradation and enhance is uptake by immune cells. The guanosine analog loxoribine (TLR7 ligand) was purchased from InvivoGen.

Compound	concentration inducing TLR8 activity as fraction of that necessary to induce TLR7-mediated activity (TLR8 and TLR7 [1])	further results
CC(C)c1nc2c(N)nc3ccccc3c2s1 [2-(1-methylethyl)thiazolo[4,5-c]quinolin-4-amine]	less than one-fifth	–
CC(C)Cc1nc2c(N)nc3ccccc3c2s1 [2-(2-methylpropyl)thiazolo[4,5-c]quinolin-4-amine]	less than one-fifth	–
CCCCc1nc2c(N)nc3cccnc3c2s1 [2-butylthiazolo[4,5-c][1,5]naphthyridin-4-amine]	–	TLR8 selectivity (TLR8 and TLR7 [1]): TLR8-selective
CCCc1nc2c(N)nc3cccnc3c2s1 [2-propylthiazolo[4,5-c][1,5]naphthyridin-4-amine]	less than one-fifth	–
CCCc1nc2c(N)nc3ccc(N)cc3c2s1 [2-propylthiazolo[4,5-c]quinoline-4,8-diamine]	–	TLR8 selectivity (TLR8 and TLR7 [1]): TLR8-selective
CCCc1nc2c(N)nc3cc(OCCOCCCl)ccc3c2s1 [7-[2-(2-chloroethoxy)ethoxy]-2-propyl[1,3]thiazolo[4,5-c]quinolin-4-amine]	less than one-fifth	–
CCCc1nc2c(N)nc3cc(F)ccc3c2s1 [7-fluoro-2-propylthiazolo[4,5-c]quinolin-4-amine]	less than one-fifth	–
CCCc1nc2c(N)nc3ccc(C)cc3c2s1 [8-methyl-2-propylthiazolo[4,5-c]quinolin-4-amine]	less than one-fifth	–
CCOCc1nc2c(N)nc3c(c2n1CC(C)(C)O)CCCC3 [IRM3, 4-amino-2-(ethoxymethyl)-α,α-dimethyl-6,7,8,9-tetrahydro-1H-imidazo[4,5-c]quinoline-1-ethanol]	–	TLR agonism (which TLR) (TLR8 and TLR7 [2]): agonist of both TLR7 and TLR8
CCCc1nc2c(N)nc3cc(-c4cccc(NS(C)(=O)=O)c4)ccc3c2s1 [N-[3-(4-amino-2-propylthiazolo[4,5-c]quinolin-7-yl)phenyl]methanesulfonamide]	less than one-fifth	–
CCCc1nc2c(N)nc3cc(OCCCNS(=O)(=O)c4cccc5c(N(C)C)cccc45)ccc3c2s1 [N-{3-[(4-amino-2-propyl[1,3]thiazolo[4,5-c]quinolin-7-yl)oxy]propyl}-5-(dimethylamino)naphthalene-1-sulfonamide]	one half to about one-fifth	–
CCCc1nc2c(N)nc3cc(OCCCCCCNS(C)(=O)=O)ccc3c2s1 [N-{6-[(4-amino-2-propyl[1,3]thiazolo[4,5-c]quinolin-7-yl)oxy]hexyl}methanesulfonamide]	less than one-fifth	–
CC(C)Cn1cnc2c(N)nc3ccccc3c21 [imiquimod]	–	upregulation of CD40 expression in neonatal mDCs [3]: does not; TLR agonism (which TLR) (TLR8 and TLR7 [2]): agonist at TLR7 receptors; ligand-induced TNF-α release in newborn cord blood compared with adult peripheral blood [4]: impaired
CCOCc1nc2c(N)nc3ccccc3c2n1CC(C)(C)O [resiquimod]	–	potency relative to imiquimod (TLR8 and TLR7 [1]; FIG. 11): ~100 fold
CCCc1nc2c(N)nc3cc(OCCNC(=O)OC(C)(C)C)ccc3c2s1 [tert-butyl 2-[(4-amino-2-propyl[1,3]thiazolo[4,5-c]quinolin-7-yl)oxy]ethylcarbamate]	one half to about one-fifth	–
CCCc1nc2c(N)nc3cc(OCCOCCNC(=O)OC(C)(C)C)ccc3c2s1 [tert-butyl 2{-2-[(4-amino-2-propyl[1,3]thiazolo[4,5-c]quinolin-7-yl)oxy]ethoxy}ethylcarbamate]	less than one-fifth	–
CCCc1nc2c(N)nc3cc(OCCCNC(=O)OC(C)(C)C)ccc3c2s1 [tert-butyl 3-[(4-amino-2-propyl[1,3]thiazolo[4,5-c]quinolin-7-yl)oxy]propylcarbamate]	less than one-fifth	–
Pam3-CSSNA [tBLP]	–	ligand-induced TNF-α release in newborn cord blood compared with adult peripheral blood [4]: impaired; ligand-induced TNF-α release in cord blood compared with adult controls ([4]; cord blood from both Caesarian-section and vaginal deliveries, 5 hours, FIGS. 2A-2C): impaired; magnitude and kinetics of ligand-induced TNF-α release in newborn cord vs. adult peripheral blood ([4]; time course, FIGS. 3A-3C): lower magnitude, but similar kinetics
S-(2,3-bisAcyloxypropyl)-cysteine-GNNDESNISFKEK (C(2,3‑bisacyloxypropyl)GNNDESNISFKEK; also: acyl groups not given here) [MALP, synthetic diacylated BLP from Mycoplasma fermentans (TLR2/6)]	–	ligand-induced TNF-α release in newborn cord blood compared with adult peripheral blood [4]: impaired
